The values that follow come from patent US20120058112A1, “ANTIBODIES” (priority 2009, published 2012).

One assay relates to IGF1R. Kind of assay: Total IGF1R level in xenograft tumors (western blot / ELISA). It counts as in vivo, nu/nu mice. The protocol: (§1) Methods: Total protein (500 microgram) from xenograft samples was isolated at the end of the efficacy study (4 weeks after indicated doses). Samples from 6 independent tumors were analyzed for east treatment. The proteins were western blotted and visualized as described previously (See FIG. 2).

A further assay deals with lung cancer cell lines. Kind of assay: Proliferation assay (Cyquant DNA content), adherent (2D) conditions. It counts as cell-based. Conditions: adherent (2D) growth conditions.
The subject of assay [1] is PI3K pathway (P-AKT, PS6K, PS6RP). The assay is described as follows: PI3K pathway western blot in xenograft tumors. The conditions noted are these: following MK-0646 treatment, previous in vivo data. The arrangement: species or system nu/nu mice. The method, then:
as §1

Assay [2] relates to NSCLC. The conditions noted are these: phase II, previously treated NSCLC patients, 2004; cited from earlier work.
Assay [3] concerns NSCLC. Conditions: cancer no longer responding to chemotherapy; cited from earlier work.
The conditions of assay [4]: cited from earlier work.
The subject of assay [5] is NSCLC. Conditions: standard chemotherapy plus EGFR inhibitor; cited from earlier work.
Assay [6] has as its system carcinoma which does not express the EGF receptor. The conditions noted are these: mouse, in vivo; cited from earlier work.
Assay [7] concerns human mammary carcinoma which expresses EGFR. The conditions noted are these: mouse, in vivo; cited from earlier work.

Procedure for lung cancer cell lines: Summary: To test the functional effect of inhibiting both EGFR & IGFIR signaling, the growth inhibition under adherent (2D) and non adherent (3D) conditions were evaluated. […] In order to test the effect of this combination under 3D non-adherent conditions, the inventors developed an ultra low attachment plate based proliferation assay.
Methods: Cells (˜3×10̂3) were seeded in adherent or non-adherent (ultra-low attachment plates; Corning) 96 well plates. […] The media and drugs were slowly replaced every 3 days and at the end of the assay (as indicated) plates were harvested and DNA content was measured using Cyquant assays as described by the manufacturer. The intrinsic growth was calculated based on the increase in DNA content from Day 1 to the end of the assay.

On to “MK-0646: humanized antibody that binds IGF-1R as well as the IR/IGF-1 hybrid receptor”, for which the “total levels of IGF1R” value in the assay with IGF1R (compared to vehicle or Erlotinib alone, FIG. 6) was “able to reduce the total levels of IGF1R”. In the assay with IGF1R (previous in vivo data, NCI-H2122 xenograft), the IGF1R receptor level result is reported as “down regulation”. In the assay on lung cancer cell lines, the growth inhibition entry is on record as “no significant growth inhibition”. Also, the P13K pathway result in assay [1] was “inhibition was also observed”.

Take `C#Cc1cccc(Nc2ncnc3cc(OCCOC)c(OCCOC)cc23)c1.Cl` [Erlotinib]: the “participants whose tumors responded to treatment” value in the assay on NSCLC [2] is given as 12%. For the same molecule, the survival versus placebo result in the assay on NSCLC [3] is given as “about two months longer”. Further, in [4] (in vivo), the overall survival benefit result is on record as “did not help patients live any longer overall”. The time to progression in assay [4] (placebo group 4.9 months) is reported as 5.1 months. Besides, in [4] (placebo group 10.5 months), the median survival is given as 10.6 months. For the same molecule, the “outcome versus chemotherapy alone” value in the assay on NSCLC [5] is reported as “did no better”.

Take `O=CN/C=C/c1cc(O)ccc1O` [erbstatin]: the tumor growth result in assay [6] is “without effect”; in assay [7], “selectively attenuates the growth”.

Consider `COc1cc2ncnc(Nc3ccc(F)c(Cl)c3)c2cc1OCCCN1CCOCC1` [gefitinib], for which the “outcome versus chemotherapy alone” value with NSCLC [5] is “did no better”.
